What follows are molecules tested against T1, MAT2A (Homo sapiens, UniProt P31153) (assay: MAT2A biochemical assay (colorimetric inorganic phosphate detection, PiColorLock)). Settings: recombinant His6-tagged MAT2A 1 μg/ml; 60 minutes preincubation at 25° C.; L-Met 80 μM, ATP 100 μM; 60 minutes reaction; read at 623 nm; read-out: MAT2A Inhibition Score.
T1 construct: His6; made in house; host or cells: SF9 insect cells
How it was run: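 Colorimetric malachite green readout of phosphate released when MAT2A turns over L-Met and ATP, after 60 min at room temperature. Enzyme: SF9-expressed His6-tagged MAT2A at 1 μg/ml. Buffer: Tris pH 8.0, 50 mM KCl, 15 mM MgCl2, 300 uM EDTA, 0.005% BSA. Compounds tested as ten-point three-fold dilutions.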

T1 sequence (P31153 whole entry): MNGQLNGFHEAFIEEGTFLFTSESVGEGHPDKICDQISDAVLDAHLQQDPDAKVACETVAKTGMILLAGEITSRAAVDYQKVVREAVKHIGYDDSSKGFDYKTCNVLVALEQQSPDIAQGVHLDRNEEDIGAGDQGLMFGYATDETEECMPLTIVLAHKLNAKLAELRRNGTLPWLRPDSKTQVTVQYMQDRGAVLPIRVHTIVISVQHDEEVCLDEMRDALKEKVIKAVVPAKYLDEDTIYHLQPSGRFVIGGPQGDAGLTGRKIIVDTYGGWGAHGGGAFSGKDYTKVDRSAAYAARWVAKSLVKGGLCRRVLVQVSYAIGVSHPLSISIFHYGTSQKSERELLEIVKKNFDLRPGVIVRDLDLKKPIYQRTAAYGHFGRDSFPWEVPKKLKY

IC50	Compound
< 100 nM	Cc1[nH]c2c(-c3ccccc3)c(-c3ccccc3)nn2c(=O)c1-c1ccc2nc(CN)sc2c1 [Compound 253, 6-(2-(aminomethyl)benzo[d]thiazol-6-yl)-5-methyl-2,3-diphenylpyrazolo[1,5-a]pyrimidin-7(4H)-one]
1000 to 10000 nM	O=C1NCCN1Cc1[nH]c2c(-c3ccccc3)c(-c3ccccc3)nn2c(=O)c1-c1ccc2ncccc2c1 [Compound 324, 5-((2-oxoimidazolidin-1-yl)methyl)-2,3-diphenyl-6-(quinolin-6-yl)pyrazolo[1,5-a]pyrimidin-7(4H)-one]
< 100 nM	O=c1c(-c2ccc3ncccc3c2)c(O)[nH]c2c(-c3ccccc3)c(-c3ccccc3)nn12 [Compound 275, 5-hydroxy-2,3-diphenyl-6-(quinolin-6-yl)pyrazolo[1,5-a]pyrimidin-7(4H)-one]
< 100 nM	NC(=O)NCc1[nH]c2c(-c3ccccc3)c(-c3ccccc3)nn2c(=O)c1-c1ccc2ncccc2c1 [Compound 235, 1-((7-oxo-2,3-diphenyl-6-(quinolin-6-yl)-4,7-dihydropyrazolo[1,5-a]pyrimidin-5-yl)methyl)urea]
< 100 nM	COc1ccc(-c2c(N/C(N)=N/O)[nH]c3c(-c4ccccc4)c(-c4ccccc4)nn3c2=O)cc1 [Compound 200, (E)-2-hydroxy-1-(6-(4-methoxyphenyl)-7-oxo-2,3-diphenyl-4,7-dihydropyrazolo[1,5-a]pyrimidin-5-yl)guanidine]
< 100 nM	Cc1[nH]c2c(-c3ccccc3)c(-c3ccccc3)nn2c(=O)c1-c1ccc2ncncc2c1 [Compound 245, 5-methyl-2,3-diphenyl-6-(quinazolin-6-yl)pyrazolo[1,5-a]pyrimidin-7(4H)-one]
< 100 nM	COc1ccc(-c2c(Nc3ncccc3O)[nH]c3c(-c4ccccc4)c(-c4ccccc4)nn3c2=O)cc1 [Compound 113, 5-(3-hydroxypyridin-2-ylamino)-6-(4-methoxy-phenyl)-2,3-diphenylpyrazolo[1,5-a]pyrimidin-7(4H)-one]
100 to 1000 nM	COc1ccc(-c2c(C(N)=O)[nH]c3c(-c4ccccc4)c(-c4ccccc4)nn3c2=O)cc1 [Compound 315, 6-(4-methoxyphenyl)-7-oxo-2,3-diphenyl-4,7-dihydropyrazolo[1,5-a]pyrimidine-5-carboxamide]
< 100 nM	COc1ccc(-c2c(Nc3cc(N)ncn3)[nH]c3c(-c4ccccc4)c(-c4ccccc4)nn3c2=O)cc1 [Compound 117, 5-((6-aminopyrimidin-4-yl)amino)-6-(4-methoxyphenyl)-2,3-diphenylpyrazolo[1,5-a]pyrimidin-7(4H)-one]
< 100 nM	COc1ccc(-c2c(NC(=O)CN)[nH]c3c(-c4ccccc4)c(-c4ccccc4)nn3c2=O)cc1 [Compound 283, 2-amino-N-(6-(4-methoxyphenyl)-7-oxo-2,3-diphenyl-4,7-dihydropyrazolo[1,5-a]pyrimidin-5-yl)acetamide]
100 to 1000 nM	Cc1[nH]c2c(-c3ccccc3)c(-c3ccccc3)nn2c(=O)c1-c1ccc2nnccc2c1 [Compound 335, 6-(cinnolin-6-yl)-5-methyl-2,3-diphenylpyrazolo[1,5-a]pyrimidin-7(4H)-one]
< 100 nM	O=c1c(-c2ccc3ncccc3c2)c(Nc2ccccn2)[nH]c2c(C3=CCCCC3)c(-c3ccccc3)nn12 [Compound 174, 3-cyclohexenyl-2-phenyl-5-(pyridin-2-ylamino)-6-(quinolin-6-yl)pyrazolo[1,5-a]pyrimidin-7(4H)-one]
< 100 nM	COc1ccc(-c2c(Nc3ncccn3)[nH]c3c(-c4ccccc4)c(-c4ccccc4)nn3c2=O)cc1 [Compound 121, 6-(4-methoxyphenyl)-2,3-diphenyl-5-(pyrimidin-2-ylamino)pyrazolo[1,5-a]pyrimidin-7(4H)-one]

More lines, now with the values behind:

Compound	IC50
COc1ccc(-c2c(Nc3nccnc3N)[nH]c3c(-c4ccccc4)c(-c4ccccc4)nn3c2=O)cc1 [Compound 128, 5-((3-aminopyrazin-2-yl)amino)-6-(4-methoxyphenyl)-2,3-diphenylpyrazolo[1,5-a]pyrimidin-7(4H)-one]	< 100 nM
COc1ccc(-c2c(Nc3ccc(C#N)cn3)[nH]c3c(-c4ccccc4)c(-c4ccccc4)nn3c2=O)cc1 [Compound 104, 6-((6-(4-methoxyphenyl)-7-oxo-2,3-diphenyl-4,7-dihydropyrazolo[1,5-a]pyrimidin-5-yl)amino)nicotinonitrile]	< 100 nM
Cc1[nH]c2c(-c3ccccc3)c(-c3ccccc3)nn2c(=O)c1-c1ccc2c(c1)NCCO2 [Compound 258, 6-(3,4-dihydro-2H-benzo[b][1,4]oxazin-6-yl)-5-methyl-2,3-diphenylpyrazolo[1,5-a]pyrimidin-7(4H)-one]	< 100 nM
Cc1[nH]c2c(N3CCCCC3)c(-c3ccccc3)nn2c(=O)c1-c1cn[nH]c1 [Compound 266, 5-methyl-2-phenyl-3-(piperidin-1-yl)-6-(1H-pyrazol-4-yl)pyrazolo[1,5-a]pyrimidin-7(4H)-one]	< 100 nM
COc1ccc(-c2c(Nc3ccccn3)[nH]c3c(-c4cccc(Cl)c4)c(-c4ccccc4)nn3c2=O)cc1 [Compound 178, 3-(3-chlorophenyl)-6-(4-methoxyphenyl)-2-phenyl-5-(pyridin-2-ylamino)pyrazolo[1,5-a]pyrimidin-7(4H)-one]	< 100 nM
COc1ccc(-c2c(Nc3cnc(C#N)cn3)[nH]c3c(C4=CCCCC4)c(-c4ccccc4)nn3c2=O)cc1 [Compound 159, 5-(3-cyclohexenyl-6-(4-methoxyphenyl)-7-oxo-2-phenyl-4,7-dihydropyrazolo[1,5-a]pyrimidin-5-ylamino)pyrazine-2-carbonitrile]	< 100 nM
COc1ccc(-c2c(Nc3cnc(N)cn3)[nH]c3c(-c4ccccc4)c(-c4ccccc4)nn3c2=O)cc1 [Compound 130, 5-((5-aminopyrazin-2-yl)amino)-6-(4-methoxyphenyl)-2,3-diphenylpyrazolo[1,5-a]pyrimidin-7(4H)-one]	< 100 nM
COc1ccc(-c2c(Nc3nccnn3)[nH]c3c(C4=CCCCC4)c(-c4ccccc4)nn3c2=O)cc1 [Compound 161, 5-((1,2,4-triazin-3-yl)amino)-3-(cyclohex-1-en-1-yl)-6-(4-methoxyphenyl)-2-phenylpyrazolo[1,5-a]pyrimidin-7(4H)-one]	< 100 nM
COc1ccc(-c2c(Nc3nncs3)[nH]c3c(C4=CCCCC4)c(-c4ccccc4)nn3c2=O)cc1 [Compound 167, 5-((1,3,4-thiadiazol-2-yl)amino)-3-(cyclohex-1-en-1-yl)-6-(4-methoxyphenyl)-2-phenylpyrazolo[1,5-a]pyrimidin-7(4H)-one]	< 100 nM
Cc1[nH]c2c(C3=CCCCO3)c(-c3ccccc3)nn2c(=O)c1-c1ccc2ncccc2c1 [Compound 217, 3-(3,4-dihydro-2H-pyran-6-yl)-5-methyl-2-phenyl-6-(quinolin-6-yl)pyrazolo[1,5-a]pyrimidin-7(4H)-one]	< 100 nM
Cc1[nH]c2c(-c3ccccc3)c(-c3ccccc3)nn2c(=O)c1-c1ccc(O)c(OCCN(C)C)c1 [Compound 292, 6-(3-(2-(dimethylamino)ethoxy)-4-hydroxyphenyl)-5-methyl-2,3-diphenylpyrazolo[1,5-a]pyrimidin-7(4H)-one]	< 100 nM
COc1ccc(-c2c(C)[nH]c3c(N4CCC(F)(F)CC4)c(-c4ccccc4)nn3c2=O)cc1 [Compound 213, 3-(4,4-difluoropiperidin-1-yl)-6-(4-methoxyphenyl)-5-methyl-2-phenylpyrazolo[1,5-a]pyrimidin-7(4H)-one]	< 100 nM
Cc1[nH]c2c(N3CCCCC3)c(-c3ccccc3)nn2c(=O)c1-c1cc[nH]c(=O)c1 [Compound 303, 5-methyl-6-(2-oxo-1,2-dihydropyridin-4-yl)-2-phenyl-3-(piperidin-1-yl)pyrazolo[1,5-a]pyrimidin-7(4H)-one]	1000 to 10000 nM
COc1ccc(-c2c(Nc3ncc(Cl)cn3)[nH]c3c(-c4ccccc4)c(-c4ccccc4)nn3c2=O)cc1 [Compound 122, 5-((5-chloropyrimidin-2-yl)amino)-6-(4-methoxyphenyl)-2,3-diphenylpyrazolo[1,5-a]pyrimidin-7(4H)-one]	< 100 nM
CN1CCOc2ccc(-c3c(Nc4ccccn4)[nH]c4c(-c5ccccc5)c(-c5ccccc5)nn4c3=O)cc21 [Compound 198, 6-(4-methyl-3,4-dihydro-2H-benzo[b][1,4]oxazin-6-yl)-2,3-diphenyl-5-(pyridin-2-ylamino)pyrazolo[1,5-a]pyrimidin-7(4H)-one]	< 100 nM
COc1ccc(-c2c(Nc3nncs3)[nH]c3c(-c4ccccc4)c(-c4ccccc4)nn3c2=O)cc1 [Compound 144, 5-((1,3,4-thiadiazol-2-yl)amino)-6-(4-methoxyphenyl)-2,3-diphenylpyrazolo[1,5-a]pyrimidin-7(4H)-one]	< 100 nM
COc1ccc(-c2c(Nc3ncnc(N)n3)[nH]c3c(-c4ccccc4)c(-c4ccccc4)nn3c2=O)cc1 [Compound 134, 5-((4-amino-1,3,5-triazin-2-yl)amino)-6-(4-methoxyphenyl)-2,3-diphenylpyrazolo[1,5-a]pyrimidin-7(4H)-one]	< 100 nM
Cc1[nH]c2c(-c3ccccc3)c(-c3ccccc3)nn2c(=O)c1-c1ccc2c(c1)NC(=O)CO2 [Compound 257, 6-(5-methyl-7-oxo-2,3-diphenyl-4,7-dihydropyrazolo[1,5-a]pyrimidin-6-yl)-2H-benzo[b][1,4]oxazin-3 (4H)-one]	< 100 nM
COc1ccc(-c2c(Nc3cccc(C#N)n3)[nH]c3c(-c4ccccc4)c(-c4ccccc4)nn3c2=O)cc1 [Compound 111, 6-((6-(4-methoxyphenyl)-7-oxo-2,3-diphenyl-4,7-dihydropyrazolo[1,5-a]pyrimidin-5-yl)amino)picolinonitrile]	< 100 nM
COc1ccc(-c2c(Nc3ncc(C#N)cn3)[nH]c3c(-c4ccccc4)c(-c4ccccc4)nn3c2=O)cc1 [Compound 115, 2-(6-(4-methoxyphenyl)-7-oxo-2,3-diphenyl-4,7-dihydropyrazolo[1,5-a]pyrimidin-5-ylamino)pyrimidine-5-carbonitrile]	< 100 nM

From US10800782B2, “Inhibitors of cellular metabolic processes” (Agios Pharmaceuticals, Inc., priority 2016, dated 2020)
